Measurements as given in PMC6351562, “Structure, function, and inhibition of drug reactivating human gut microbial β-glucuronidases” (Scientific Reports, 2019).
Where “and” joins values, the source holds several entries; their conditions need not be identical. Equal values may be shown once.

Experiments:
Format in all cases: biochemical
[1] = biological target: T1, Eubacterium eligens GUS (EeGUS) (Lachnospira eligens, UniProt C4Z6Z2); assay: In vitro DCF-G processing assay (UPLC); conditions: DCF-G as substrate, 400 µM; pH 6.5; 37 °C
T1 sequence (C4Z6Z2 1-611): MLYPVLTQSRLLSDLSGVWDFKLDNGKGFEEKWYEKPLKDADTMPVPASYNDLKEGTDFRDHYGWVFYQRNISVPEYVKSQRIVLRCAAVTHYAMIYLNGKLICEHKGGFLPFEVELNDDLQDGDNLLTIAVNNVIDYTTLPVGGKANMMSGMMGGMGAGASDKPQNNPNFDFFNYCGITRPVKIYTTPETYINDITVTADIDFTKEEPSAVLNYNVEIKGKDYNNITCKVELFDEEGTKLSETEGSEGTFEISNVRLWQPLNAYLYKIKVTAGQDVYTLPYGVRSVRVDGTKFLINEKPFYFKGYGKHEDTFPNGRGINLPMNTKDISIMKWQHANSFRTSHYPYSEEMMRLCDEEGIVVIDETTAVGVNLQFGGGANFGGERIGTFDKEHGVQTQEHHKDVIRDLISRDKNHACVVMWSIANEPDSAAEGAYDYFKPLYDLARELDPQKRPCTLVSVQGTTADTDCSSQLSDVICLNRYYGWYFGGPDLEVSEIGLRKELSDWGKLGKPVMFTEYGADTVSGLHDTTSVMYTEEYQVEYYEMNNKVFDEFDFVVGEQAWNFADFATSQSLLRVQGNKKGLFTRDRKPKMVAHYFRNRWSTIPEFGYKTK

[2] = biological target: Clostridium perfringens GUS (CpGUS) (Clostridium perfringens, UniProt Q8VNV4); conditions: pH 6.5; 37 °C
[3] = biological target: T2, Ruminococcus gnavus GUS (RgGUS) (Mediterraneibacter gnavus, UniProt A0A2N5PVZ8); assay: In vitro DCF-G processing assay (UPLC); conditions: DCF-G as substrate, 400 µM; pH 6.5; 37 °C
T2 sequence (A0A2N5PVZ8 1-603): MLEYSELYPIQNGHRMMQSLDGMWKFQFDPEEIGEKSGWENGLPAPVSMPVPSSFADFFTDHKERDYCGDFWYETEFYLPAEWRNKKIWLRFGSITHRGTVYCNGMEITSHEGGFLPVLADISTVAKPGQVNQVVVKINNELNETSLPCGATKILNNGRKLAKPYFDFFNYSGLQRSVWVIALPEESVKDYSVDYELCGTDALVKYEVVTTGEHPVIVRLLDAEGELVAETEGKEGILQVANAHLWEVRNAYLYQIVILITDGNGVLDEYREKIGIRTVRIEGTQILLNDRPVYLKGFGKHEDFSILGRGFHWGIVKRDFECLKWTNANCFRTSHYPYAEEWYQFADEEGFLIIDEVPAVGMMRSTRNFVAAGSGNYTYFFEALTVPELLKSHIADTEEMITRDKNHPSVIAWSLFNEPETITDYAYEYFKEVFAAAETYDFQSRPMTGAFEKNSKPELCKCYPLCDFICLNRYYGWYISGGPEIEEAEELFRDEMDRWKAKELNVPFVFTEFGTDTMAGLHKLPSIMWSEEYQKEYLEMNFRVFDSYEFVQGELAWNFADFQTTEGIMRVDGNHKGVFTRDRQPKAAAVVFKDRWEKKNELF

[4] = biological target: T3, Streptococcus agalactiae GUS (SaGUS) (Streptococcus agalactiae serotype V, UniProt Q8E0N2); assay: In vitro DCF-G processing assay (UPLC); conditions: DCF-G as substrate, 400 µM; pH 6.5; 37 °C
T3 construct: 6x His; made in house
T3 sequence (Q8E0N2 whole entry): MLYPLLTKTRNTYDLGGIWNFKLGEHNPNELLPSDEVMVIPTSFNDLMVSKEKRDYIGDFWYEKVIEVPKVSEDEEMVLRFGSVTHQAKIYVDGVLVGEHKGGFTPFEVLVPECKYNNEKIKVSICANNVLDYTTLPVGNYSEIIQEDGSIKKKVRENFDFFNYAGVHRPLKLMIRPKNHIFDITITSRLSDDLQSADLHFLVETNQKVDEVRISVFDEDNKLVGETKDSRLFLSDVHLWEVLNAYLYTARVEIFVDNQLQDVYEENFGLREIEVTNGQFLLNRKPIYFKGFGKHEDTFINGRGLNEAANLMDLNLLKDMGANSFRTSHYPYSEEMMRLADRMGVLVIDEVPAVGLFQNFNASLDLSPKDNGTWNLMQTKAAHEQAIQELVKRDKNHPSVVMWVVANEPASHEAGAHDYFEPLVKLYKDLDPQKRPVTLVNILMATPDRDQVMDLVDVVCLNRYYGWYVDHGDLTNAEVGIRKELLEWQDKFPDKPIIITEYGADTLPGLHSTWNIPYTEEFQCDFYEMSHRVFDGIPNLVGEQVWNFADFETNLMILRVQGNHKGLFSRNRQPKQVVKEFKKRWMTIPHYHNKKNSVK
Description: (§1) While pNPG serves as a useful tool to assess the glucuronide processing capabilities of GUS enzymes, it is not a substrate present in the GI tract. Given our hypothesis that L1 GUS enzymes efficiently process drug glucuronides, we determined using ultra performance liquid chromatography (UPLC) the cleavage rates of the novel L1 GUS enzymes FpGUS, LrGUS, RgGUS, as well as the ten additional enzymes in our GUS panel, with the physiologically relevant glucuronide metabolite of the NSAID diclofenac, DCF-G (Table 3 and Fig. S11).
(§2) Diclofenac acyl β-D-glucuronide (DCF-G) was purchased as a solid (LC Scientific Inc., Concord ON) and resuspended in DMSO to a concentration of 25 mM. […] The pH of each reaction was chosen based on the optimal pH determined for each GUS with pNPG. Reactions were quenched at 0, 1, 2, 3, 4, and 5 min with 50 µL of 25% trichloroacetic acid (TCA). For PmGUS, reactions were quenched at 0, 10, 20, 30, 40, and 50 min. After centrifugation at 13,000xg for 10 min, the resultant supernatant was subjected to UPLC analysis. The concentration of DCF-G remaining at each time point was quantified on a Waters Acquity H-class liquid chromatograph system. Samples were separated on a Waters Acquity UPLC BEH C18 column (2.1 × 50 mm, 1.7 µm particle size) at 40 °C. The flow rate was 0.6 mL/min, and the injection volume was 3 µL. LC conditions were set at 100% water with 0.1% formic acid (A) ramped linearly over 9.8 mins to 95% acetonitrile with 0.1% formic acid (B) and held until 10.2 mins. At 10.21 mins the gradient was switched back to 100% A and allowed to re-equilibrate until 11.25 mins. DCF-G was monitored at 280 nm. The concentration of DCF-G was determined from a standard curve (0–500 µM DCF-G in assay buffer). Control reactions were performed in which enzyme was substituted with buffer. Background hydrolysis was not observed at each pH tested. Reactions were performed in triplicate for each enzyme.

E. coli GUS (EcGUS) = E. coli GUS (EcGUS) (Escherichia coli, UniProt P05804); assay: In vitro DCF-G processing assay (UPLC); conditions: DCF-G as substrate, 400 µM; pH 7.4; 37 °C
E. coli GUS (EcGUS), sequence (P05804 whole entry): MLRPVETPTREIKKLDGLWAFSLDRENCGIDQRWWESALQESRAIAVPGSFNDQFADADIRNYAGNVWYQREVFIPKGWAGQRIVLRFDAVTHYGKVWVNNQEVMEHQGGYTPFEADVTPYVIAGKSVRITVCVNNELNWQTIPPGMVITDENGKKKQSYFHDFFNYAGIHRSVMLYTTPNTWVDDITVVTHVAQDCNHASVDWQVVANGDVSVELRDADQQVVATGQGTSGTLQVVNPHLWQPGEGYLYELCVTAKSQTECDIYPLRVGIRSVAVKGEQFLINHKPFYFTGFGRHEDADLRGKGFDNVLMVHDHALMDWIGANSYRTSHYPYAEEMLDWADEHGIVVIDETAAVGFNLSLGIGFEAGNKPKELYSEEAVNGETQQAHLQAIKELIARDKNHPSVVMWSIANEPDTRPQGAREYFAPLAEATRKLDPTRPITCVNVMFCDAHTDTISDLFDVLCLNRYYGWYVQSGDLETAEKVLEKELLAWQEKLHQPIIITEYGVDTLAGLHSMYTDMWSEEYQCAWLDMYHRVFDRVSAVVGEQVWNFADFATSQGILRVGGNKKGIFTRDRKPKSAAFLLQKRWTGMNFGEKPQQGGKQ
Description: as §1, §2

[5] = biological target: Bacteroides fragilis GUS (BfGUS) (Bacteroides fragilis, UniProt Q5LIC7); assay: In vitro DCF-G processing assay (UPLC); conditions: DCF-G as substrate, 400 µM; pH 5.0; 37 °C
Bacteroides fragilis GUS (BfGUS), sequence (Q5LIC7 whole entry): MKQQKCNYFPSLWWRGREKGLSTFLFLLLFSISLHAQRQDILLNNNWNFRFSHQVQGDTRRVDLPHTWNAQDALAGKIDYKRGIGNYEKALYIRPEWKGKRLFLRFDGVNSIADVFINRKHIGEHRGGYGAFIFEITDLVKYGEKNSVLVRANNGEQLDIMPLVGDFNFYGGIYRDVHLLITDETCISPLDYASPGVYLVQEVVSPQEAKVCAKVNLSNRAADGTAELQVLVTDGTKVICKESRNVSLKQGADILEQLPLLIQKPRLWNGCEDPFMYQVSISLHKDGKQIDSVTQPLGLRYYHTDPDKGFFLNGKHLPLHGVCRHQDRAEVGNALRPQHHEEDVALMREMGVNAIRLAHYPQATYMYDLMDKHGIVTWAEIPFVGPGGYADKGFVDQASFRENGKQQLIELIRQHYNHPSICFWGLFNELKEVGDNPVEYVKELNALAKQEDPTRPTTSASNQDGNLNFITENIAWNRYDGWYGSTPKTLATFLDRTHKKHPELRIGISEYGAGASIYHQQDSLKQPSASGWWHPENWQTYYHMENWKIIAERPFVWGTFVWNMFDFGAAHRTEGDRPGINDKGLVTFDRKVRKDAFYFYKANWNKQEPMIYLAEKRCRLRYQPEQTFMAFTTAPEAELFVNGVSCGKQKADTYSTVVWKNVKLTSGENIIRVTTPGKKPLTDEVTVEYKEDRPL
Description: as §1, §2

`O=C(Cc1ccccc1Nc1c(Cl)cccc1Cl)O[C@@H]1O[C@H](C(=O)O)[C@@H](O)[C@H](O)[C@H]1O` [DCF-G, Diclofenac acyl β-D-glucuronide] was tested, and the “Apparent kcat” value [1] was 138 s⁻¹ and 138 ± 2 s⁻¹, the “Apparent kcat” value [2] was 61.5 ± 0.6 s⁻¹ and the “Apparent kcat” value [3] was 24.0 s⁻¹ and 24.0 ± 0.5 s⁻¹. For the same molecule, the “Apparent kcat” value [4] was 97 s⁻¹ and 97 ± 5 s⁻¹, the “Apparent kcat” value (E. coli GUS (EcGUS)) was 30.7 s⁻¹ and 30.7 ± 0.7 s⁻¹ and the “Apparent kcat” value [5] was 15.1 s⁻¹ and 15.1 ± 0.5 s⁻¹.
